The values below come from patent US20160272617A1, “SUBSTITUTED PHENYLALANINE DERIVATIVES” (BAYER PHARMA AKTIENGESELLSCHAFT, priority 2013, published 2016).

Molecules are shown by their SMILES. Structures can show the parent of a compound that is named as a salt.

In one assay the target is T1, human factor XIa (Homo sapiens, UniProt P03951).
T1 construct: purchased Kordia
Put plainly: Measurement of FXIa inhibition (fluorogenic peptide substrate Boc-Glu(OBzl)-Ala-Arg-AMC). It is filed as biochemical. To be noted: factor XIa from Kordia, 15 min preincubation, 30 min at 22° C., fluorescence. Summed up:
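Released AMC fluorescence (360/460 nm) read after 30 min at 22 °C. The reaction was started with Boc-Glu(OBzl)-Ala-Arg-AMC (10 μM stock) after a 15 min preincubation of the enzyme (0.45 nM stock) with compound (final 50 μM to 0.00013 μM).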

Another assay has as its system human and animal plasma. In words: Determination of anticoagulatory activity: activated partial thromboplastin time (aPTT) in plasma. The settings on record: concentration of test substance which brings about a 1.5-fold extension of the aPTT; plasma species not given. Summed up:
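Citrated plasma (1:9, 0.11 M citrate; 4000 g, 15 min) from human or animal blood incubated with test compound and cephalin/kaolin PTT reagent for 3 min at 37° C.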

T1 sequence (P03951 388-625 limits assumed): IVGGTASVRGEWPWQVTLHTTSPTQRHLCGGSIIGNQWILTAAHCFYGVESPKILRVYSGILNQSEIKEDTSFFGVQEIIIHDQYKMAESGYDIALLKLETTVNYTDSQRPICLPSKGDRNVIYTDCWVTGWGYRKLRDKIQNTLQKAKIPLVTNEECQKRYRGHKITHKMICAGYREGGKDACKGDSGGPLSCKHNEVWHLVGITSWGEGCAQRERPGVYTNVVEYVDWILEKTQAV
T1 sequence (P03951 19-387 partner limits assumed): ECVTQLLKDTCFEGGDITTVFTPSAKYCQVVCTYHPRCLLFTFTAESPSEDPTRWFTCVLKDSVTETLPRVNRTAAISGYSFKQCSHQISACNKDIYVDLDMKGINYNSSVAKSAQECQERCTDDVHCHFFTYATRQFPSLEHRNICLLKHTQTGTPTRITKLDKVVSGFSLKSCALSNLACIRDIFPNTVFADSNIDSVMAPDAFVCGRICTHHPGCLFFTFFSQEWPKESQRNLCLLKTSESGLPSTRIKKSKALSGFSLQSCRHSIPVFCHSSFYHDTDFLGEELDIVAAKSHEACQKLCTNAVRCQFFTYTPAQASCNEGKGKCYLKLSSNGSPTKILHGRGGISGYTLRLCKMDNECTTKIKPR

By IC50 is commonly meant the concentration that inhibits the measured activity by half. Read a low IC50 as inhibition by little substance. Consider `Cc1cc(C(=O)NC2CCNCC2)ccc1-c1ccc(C[C@H](NC(=O)[C@H]2CC[C@H](CN)CC2)C(=O)Nc2ccc(-c3nc(C(F)(F)C(F)(F)C(N)=O)n[nH]3)cc2)cc1` [Example 127, 4′-[(2S)-2-({[trans-4-(Aminomethyl)cyclohexyl]carbonyl}amino)-3-({4-[3-(3-amino-1,1,2,2-tetrafluoro-3-oxopropyl)-1H-1,2,4-triazol-5-yl]phenyl}amino)-3-oxopropyl]-2-methyl-N-(piperidin-4-yl)biphenyl-4-carboxamide hydrochloride], for which, on human factor XIa, inhibition was half-maximal at 1.5 nM (IC50). The “aPTT” value in the assay on human and animal plasma came to 0.14 µmol/L.

At human factor XIa, `CNC(=O)C(F)(F)C(F)(F)c1n[nH]c(-c2ccc(NC(=O)[C@H](Cc3ccc(-c4ccc(C(=O)NC5CCNCC5)cc4C)cc3)NC(=O)[C@H]3CC[C@H](CN)CC3)cc2)n1` [Example 128, 4′-{(2S)-2-({[trans-4-(Aminomethyl)cyclohexyl]carbonyl}amino)-3-oxo-3-[(4-{3-[1,1,2,2-tetrafluoro-3-(methylamino)-3-oxopropyl]-1H-1,2,4-triazol-5-yl}phenyl)amino]propyl}-2-methyl-N-(piperidin-4-yl)biphenyl-4-carboxamide hydrochloride] registered an IC50 of 1.7 nM. In addition, the “aPTT” value with human and animal plasma was 0.14 µmol/L.

The molecule `COC(=O)C(F)(F)C(F)(F)c1n[nH]c(-c2ccc(NC(=O)[C@H](Cc3ccc(-c4ccc(C(=O)NC5CCNCC5)cc4C)cc3)NC(=O)[C@H]3CC[C@H](CN)CC3)cc2)n1` [Example 129, Methyl 3-{5-[4-({(2S)-2-({[trans-4-(aminomethyl)cyclohexyl]carbonyl}amino)-3-[2′-methyl-4′-(piperidin-4-ylcarbamoyl)biphenyl-4-yl]propanoyl}amino)phenyl]-1H-1,2,4-triazol-3-yl}-2,2,3,3-tetrafluoropropanoate hydrochloride] gave an IC50 against human factor XIa of 1.8 nM. Besides, the “aPTT” value in the assay with human and animal plasma worked out at 0.09 µmol/L.

As for `CN(C)C1CCC(NC(=O)c2ccc(-c3ccc(C[C@H](NC(=O)[C@H]4CC[C@H](CN)CC4)C(=O)Nc4ccc(-c5nc(C(F)(F)C(F)(F)C(=O)O)n[nH]5)cc4)cc3)c(C(F)(F)F)c2)CC1` (stereo partly drawn) [Example 132, 3-{5-[4-({(2S)-2-({[trans-4-(Aminomethyl)cyclohexyl]carbonyl}amino)-3-[4′-{[4-(dimethyl-amino)cyclohexyl]carbamoyl}-2′-(trifluoromethyl)biphenyl-4-yl]propanoyl}amino)phenyl]-1H-1,2,4-triazol-3-yl}-2,2,3,3-tetrafluoropropanoic acid hydrochloride], the IC50 on human factor XIa worked out at 1.6 nM. Also, the “aPTT” value with human and animal plasma was found to be 0.05 µmol/L.

`Cc1cc(C(=O)NC2CCCNC2=O)ccc1-c1ccc(C[C@H](NC(=O)[C@H]2CC[C@H](CN)CC2)C(=O)Nc2ccc3cn[nH]c3c2)cc1` (stereo partly drawn) [Example 143, 4′-[(2S)-2-({[trans-4-(Aminomethyl)cyclohexyl]carbonyl}amino)-3-(1H-indazol-6-ylamino)-3-oxopropyl]-2-methyl-N-(2-oxopiperidin-3-yl)biphenyl-4-carboxamide hydrochloride] displayed an IC50 on human factor XIa of 2.3 nM. The “aPTT” value in the assay with human and animal plasma worked out at 0.07 µmol/L.

As for `Cc1cc(C(=O)NC2CCC(N(C)C)CC2(C)C)ccc1-c1ccc(C[C@H](NC(=O)[C@H]2CC[C@H](CN)CC2)C(=O)Nc2ccc(-c3nnn[nH]3)cc2)cc1` (stereo partly drawn) [Example 144, 4′-[(2S)-2-({[trans-4-(Aminomethyl)cyclohexyl]carbonyl}amino)-3-oxo-3-{[4-(1H-tetrazol-5-yl)phenyl]amino}propyl]-N-[4-(dimethylamino)-2,2-dimethylcyclohexyl]-2-methylbiphenyl-4-carboxamide hydrochloride], the IC50 at human factor XIa was 1.8 nM. Further, the “aPTT” value with human and animal plasma was found to be 0.06 µmol/L.

For `Cc1cc(C(=O)N[C@@H]2CCNC2=O)ccc1-c1ccc(C[C@H](NC(=O)[C@H]2CC[C@H](CN)CC2)C(=O)Nc2ccc3cn[nH]c3c2)cc1` [Example 145, 4′-[(2S)-2-({[trans-4-(Aminomethyl)cyclohexyl]carbonyl}amino)-3-(1H-indazol-6-ylamino)-3-oxopropyl]-2-methyl-N-[(3R)-2-oxopyrrolidin-3-yl]biphenyl-4-carboxamide hydrochloride], on human factor XIa, half-maximal inhibition (IC50) required 3.2 nM. In addition, in the assay on human and animal plasma, the “aPTT” value was determined as 0.07 µmol/L.

On human factor XIa, `Cc1cc(C(=O)NC2CCC(N(C)Cc3ccccc3)CC2)ccc1-c1ccc(C[C@H](NC(=O)[C@H]2CC[C@H](CN)CC2)C(=O)Nc2ccc(-c3nnn[nH]3)cc2)cc1` (stereo partly drawn) [Example 146, 4′-[(2S)-2-({[trans-4-(Aminomethyl)cyclohexyl]carbonyl}amino)-3-oxo-3-{[4-(1H-tetrazol-5-yl)phenyl]amino}propyl]-N-{4-[benzyl(methyl)amino]cyclohexyl}-2-methylbiphenyl-4-carboxamide hydrochloride] returned an IC50 of 1.8 nM. Also, the “aPTT” value in the assay on human and animal plasma came out at 0.07 µmol/L.

In the case of `CNC1CCC(NC(=O)c2ccc(-c3ccc(C[C@H](NC(=O)[C@H]4CC[C@H](CN)CC4)C(=O)Nc4ccc(-c5nnn[nH]5)cc4)cc3)c(C)c2)CC1` (stereo partly drawn) [Example 147, 4′-[(2S)-2-({[trans-4-(Aminomethyl)cyclohexyl]carbonyl}amino)-3-oxo-3-{[4-(1H-tetrazol-5-yl)phenyl]amino}propyl]-2-methyl-N-[4-(methylamino)cyclohexyl]biphenyl-4-carboxamide hydrochloride], at human factor XIa, it took 1.7 nM to reach half-maximal inhibition (IC50). In addition, the “aPTT” value in the assay with human and animal plasma amounted to 0.01 µmol/L.

The molecule `Cc1cc(C(=O)NC2CCC(N(C)C)CC2)ccc1-c1ccc(C[C@H](NC(=O)[C@H]2CC[C@H](CN)CC2)C(=O)Nc2ccc(-c3nnc(C(F)(F)C(F)(F)C(F)(F)C(=O)O)[nH]3)cc2)cc1` (stereo partly drawn) [Example 148, 4-[5-(4-{[(2S)-2-({[trans-4-(Aminomethyl)cyclohexyl]carbonyl}amino)-3-(4′-{[4-(dimethylamino)cyclohexyl]carbamoyl}-2′-methylbiphenyl-4-yl)propanoyl]amino}phenyl)-4H-1,2,4-triazol-3-yl]-2,2,3,3,4,4-hexafluorobutanoic acid hydrochloride] returned an IC50 at human factor XIa of 1 nM. Moreover, in the assay with human and animal plasma, the “aPTT” value was found to be 0.07 µmol/L.

With `Cc1cc(C(=O)NC2CCNCC2(C)C)ccc1-c1ccc(C[C@H](NC(=O)[C@H]2CC[C@H](CN)CC2)C(=O)Nc2ccc(-c3nnn[nH]3)cc2)cc1` (stereo partly drawn) [Example 149, 4′-[(2S)-2-({[trans-4-(Aminomethyl)cyclohexyl]carbonyl}amino)-3-oxo-3-{[4-(1H-tetrazol-5-yl)phenyl]amino}propyl]-N-(3,3-dimethylpiperidin-4-yl)-2-methylbiphenyl-4-carboxamide hydrochloride], the half-maximal inhibitory concentration (IC50) on human factor XIa was determined as 1.8 nM. For the same molecule, the “aPTT” value in the assay on human and animal plasma is 0.04 µmol/L.

For `CCN(C)C1CCC(NC(=O)c2ccc(-c3ccc(C[C@H](NC(=O)[C@H]4CC[C@H](CN)CC4)C(=O)Nc4ccc(-c5nnn[nH]5)cc4)cc3)c(C)c2)CC1` (stereo partly drawn) [Example 150, 4′-[(2S)-2-({[trans-4-(Aminomethyl)cyclohexyl]carbonyl}amino)-3-oxo-3-{[4-(1H-tetrazol-5-yl)phenyl]amino}propyl]-N-{4-[ethyl(methyl)amino]cyclohexyl}-2-methylbiphenyl-4-carboxamide hydrochloride], on human factor XIa, the midpoint of inhibition, the IC50, lay at 2.5 nM. Moreover, in the assay with human and animal plasma, the “aPTT” value came out at 0.07 µmol/L.
